The experiment relates to PKC (mix of isoforms). The experiment can be described thus: PKC assay (counter screen). Type of experiment: biochemical. The following applies: myelin basic protein substrate, 10 μM ATP; read-out: Counter screens IC50 (μM) PKC. As to the method: Final assay concentrations were as follows: 0.25 mM EGTA, 0.4 mM CaCl, 20 mM Tris pH 7.5, 10 mM MgCl, 1 mM 2-mercaptoethanol, 0.32 mg/ml phosphatidylserine, 0.032 mg/ml diacylglycerol, 10 μM ^33P-ATP, 70 μg/ml MBP, 10 ng/ml PKC, 0.1 mg/ml BSA.
Assays are performed using 96 deep well assay plates. In each assay well 10 μl of solvent control or appropriate inhibitor dilution with 5 μl ^33P-ATP (components #5 and #3) were premixed. […] The liquid in the assay wells was thoroughly mixed and the assay reactions incubated for 20 minutes at room temperature. The reactions were stopped by adding 100 mM EDTA (50 μl) and 100 mM sodium pyrophosphate (50 μl) and mixing. Phosphorylated MBP was collected on PVDF membranes in 96 well filter plates and quantitated by scintillation counting.
Background: A counterscreen serves to expose hits that act by an unwanted route or on another target.

A value given as a limit tells only on which side of the number the result lay.

For orientation: IC50 means the midpoint of a concentration-inhibition curve. On to `CC(C)(N)c1ccc(-c2nc3ccccc3nc2-c2ccccc2)cc1` [Compound 1, 2-[4-(2-aminoprop-2-yl)phenyl]-3-phenylquinoxaline], for which the IC50 is more than 80 µM.

Regarding `Nc1ccc(-c2nc3ccccc3nc2-c2ccc(N)cc2)cc1` [Compound 2, 2,3-bis(4-aminophenyl)-quinoxaline], the IC50 was more than 80 µM.

For the origin of these results see patent US7034026B2, “Inhibitors of Akt activity” (Merck & Co., Inc., priority 2001, dated 2006).
